Laboratory results from patent US12202818B2, “Compounds and methods for CD73 modulation and indications therefor” (Opna Bio SA, priority 2020, dated 2025).

Legend:
[1] = target: T1, Human CD73 (amino acid residues 27-549) (Homo sapiens, UniProt P21589); assay: CD73 enzymatic assay (luciferase-based indirect assay, CellTiter-Glo); assay type: biochemical; conditions: 0.4 nM CD73, 150 μM AMP, 1 hour at room temperature
T1 construct: Human CD73 (amino acid residues 27-549); His tag (N); made in house; host or cells: E. coli
T1 sequence (P21589 27-549): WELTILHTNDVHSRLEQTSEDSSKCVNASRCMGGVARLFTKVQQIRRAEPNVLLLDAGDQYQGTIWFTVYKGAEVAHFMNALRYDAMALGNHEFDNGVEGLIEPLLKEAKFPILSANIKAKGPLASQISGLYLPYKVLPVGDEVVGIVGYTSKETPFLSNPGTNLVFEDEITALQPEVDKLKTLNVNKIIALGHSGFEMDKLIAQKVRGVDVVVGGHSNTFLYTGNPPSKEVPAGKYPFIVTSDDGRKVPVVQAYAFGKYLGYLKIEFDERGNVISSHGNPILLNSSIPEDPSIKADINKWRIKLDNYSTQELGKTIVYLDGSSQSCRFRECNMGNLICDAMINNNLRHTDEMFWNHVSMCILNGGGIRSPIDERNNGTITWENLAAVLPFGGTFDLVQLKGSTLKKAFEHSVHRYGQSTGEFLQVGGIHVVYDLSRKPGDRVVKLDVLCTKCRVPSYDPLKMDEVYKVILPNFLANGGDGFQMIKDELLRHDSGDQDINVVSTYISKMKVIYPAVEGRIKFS
Method: CD73 enzymatic activity was measured in a luciferase-based indirect assay using CellTiter-Glo® system from Promega. The luciferase reaction in the presence of ATP is inhibited by AMP, a primary substrate of CD73. Addition of CD73 enzyme to the reaction converts AMP to adenosine, and release the inhibition, producing a luminescent signal. Inhibition of CD73 leads to the decrease of this luminescent signal.
Human CD73 (amino acid residues 27-549) with N-Terminal His tag was purified in E. coli. All the assay components were prepared in 50 mM HEPEs buffer (pH 7.4) with 0.01% Tween-20. The CD73 enzymatic assay was performed using 0.4 nM CD73 and 150 μM AMP. 9.5 μL of CD73 protein and 9.5 μL of AMP were added to the wells of a 384 well plate containing lpL of various concentrations of test compound or DMSO vehicle and incubated for 1 hour at room temperature. 16 wells containing CD73, AMP and 5% DMSO served as high control. 16 wells containing AMP and 5% DMSO served as low control. Enzymatic reaction was stopped and AMP level was measured indirectly by adding 5 μL of CellTiter-Glo® 2.0 reagent and 5 μL of ATP with a final concentration of 1 μM. Following incubation of the plate at room temperature for 30 minutes, luminescent signal was read on a Tecan plate reader. The percentage inhibition at individual concentrations relative to high and low controls was calculated. The data were analyzed by using nonlinear regression to generate IC50 values.

human CD73 = target: T2, human CD73 (Homo sapiens, UniProt P21589); assay: Inhibitor activity against CD73 in cell based assay (CD73 expressing CHO-K1 cells); conditions: CHO-K1 cells expressing human CD73, 150 μM AMP, 4 hours of incubation; read-out: CHO-K1 CELL_VARIANT: CD73 IC50
T2 construct: expressed in transfected cells
T2 sequence (P21589 27-549): T1 sequence (P21589 27-549)
Method: Determine Inhibitor Activity Against CD73 in Cell Based Assay
CD73 expressing CHO-K1 cell clones were generated upon stable transfection of a plasmid expressing human CD73 under the control of CMV promoter. Cells were selected in Ham's F-12K (Kaighn's) media supplemented with 10% fetal bovine serum and 1 mg/ml G418 at 37° C. in a humidified incubator supplied with 5% CO2. The assays were performed as follows. Cells were seeded in a 96 well plate in 50 μL of culture media at a density of 1×10^4 per well. Compound at a maximal concentration of 5 mM was serially diluted 1:3 in DMSO for a total of 8 point titration. A 2 μL aliquot of each dilution point was added to […] culture media and 25 µL was added to each well, providing 10 μM compound at the maximum concentration point. AMP was diluted in culture media and 25 μL was added to each well with a final concentration of 150 μM. 4 wells containing 0.2% DMSO treated cells and AMP served as high controls and 4 wells containing media only with 0.2% DMSO and AMP served as low controls. After 4 hours of incubation, 20 μL of the supernatant was transferred to a 384 well plate. AMP level in supernatant was measured indirectly by adding 5 μL of CellTiter-Glo® 2.0 reagent and 5 μL of ATP with a final concentration of 1 μM. Following incubation of plate at room temperature for 30 minutes, luminescent signal was read on a Tecan plate reader. The percentage inhibition at individual concentrations relative to high and low controls was calculated. The data were analyzed by using nonlinear regression to generate ICso values.

Compound	IC50 [1] [µM]	IC50 (human CD73) [µM]
O=c1[nH]ncc(N2CC[C@@H](Oc3cc(N4CCC5(CC4)CC(F)(F)C5)ccn3)C2)c1Cl [P-0024, (R)-4-chloro-5-(3-((4-(2,2-difluoro-7-azaspiro[3.5]nonan-7-yl)pyridin-2-yl)oxy)pyrrolidin-1-yl)pyridazin-3(2H)-one]	0.001 to 10	0.001 to 10
Cc1nn(C2CCC2)c(C)c1-c1ccnc(O[C@@H]2CCN(c3cn[nH]c(=O)c3Cl)C2)c1 [P-0026, (R)-4-chloro-5-(3-((4-(1-cyclobutyl-3,5-dimethyl-1H-pyrazol-4-yl)pyridin-2-yl)oxy)pyrrolidin-1-yl)pyridazin-3(2H)-one]	0.001 to 10	0.001 to 10
CS(=O)(=O)N1CC=C(c2ccnc(O[C@@H]3CCN(c4cn[nH]c(=O)c4Cl)C3)c2)CC1 [P-0029, (R)-4-chloro-5-(3-((1′-(methylsulfonyl)-1′,2′,3′,6′-tetrahydro-[4,4′-bipyridin]-2-yl)oxy)pyrrolidin-1-yl)pyridazin-3(2H)-one]	0.001 to 10	10 to 100
N#CCC1CCN(c2ccnc(O[C@@H]3CCN(c4cn[nH]c(=O)c4Cl)C3)c2)CC1 [P-0030, (R)-2-(1-(2-((1-(5-chloro-6-oxo-1,6-dihydropyridazin-4-yl)pyrrolidin-3-yl)oxy)pyridin-4-yl)piperidin-4-yl)acetonitrile]	0.001 to 10	0.001 to 10
O=c1[nH]ncc(N2CC[C@@H](Oc3cc(C4CCC(O)CC4)ccn3)C2)c1Cl (stereo partly drawn) [P-0031, (R)-4-chloro-5-(3-((4-(4-hydroxycyclohexyl)pyridin-2-yl)oxy)pyrrolidin-1-yl)pyridazin-3(2H)-one]	0.001 to 10	0.001 to 10
O=c1[nH]ncc(N2CC[C@@H](Oc3cc(C4=CCNC4)ccn3)C2)c1Cl [P-0032, (R)-4-chloro-5-(3-((4-(2,5-dihydro-1H-pyrrol-3-yl)pyridin-2-yl)oxy)pyrrolidin-1-yl)pyridazin-3(2H)-one]	0.001 to 10	0.001 to 10

Next, values leading:

IC50 [1] [µM]	IC50 (human CD73) [µM]	Compound
0.001 to 10	0.001 to 10	O=c1c(Cl)c(N2CC[C@@H](Oc3cc(C4CCNCC4)ccn3)C2)cnn1CCO [P-0023, (R)-4-chloro-2-(2-hydroxyethyl)-5-(3-((4-(piperidin-4-yl)pyridin-2-yl)oxy)pyrrolidin-1-yl)pyridazin-3(2H)-one]
0.001 to 10	0.001 to 10	O=C(NC1CCOCC1)c1ccnc(O[C@@H]2CCN(c3cn[nH]c(=O)c3Cl)C2)c1 [P-0025, (R)-2-((1-(5-chloro-6-oxo-1,6-dihydropyridazin-4-yl)pyrrolidin-3-yl)oxy)-N-(tetrahydro-2H-pyran-4-yl)isonicotinamide]
0.001 to 10	0.001 to 10	Cc1nn(C(C)C)c(C)c1-c1ccnc(O[C@@H]2CCN(c3cn[nH]c(=O)c3Cl)C2)c1 [P-0027, (R)-4-chloro-5-(3-((4-(1-isopropyl-3,5-dimethyl-1H-pyrazol-4-yl)pyridin-2-yl)oxy)pyrrolidin-1-yl)pyridazin-3(2H)-one]
0.001 to 10	0.001 to 10	COC(=O)C1C2CCC1CN(c1ccnc(O[C@@H]3CCN(c4cn[nH]c(=O)c4Cl)C3)c1)C2 (stereo partly drawn) [P-0028, methyl 3-(2-(((R)-1-(5-chloro-6-oxo-1,6-dihydropyridazin-4-yl)pyrrolidin-3-yl)oxy)pyridin-4-yl)-3-azabicyclo[3.2.1]octane-8-carboxylate]
0.001 to 10	0.001 to 10	Cc1nn(C2(CC#N)COC2)c(C)c1-c1ccnc(O[C@@H]2CCN(c3cn[nH]c(=O)c3Cl)C2)c1 [P-0033, (R)-2-(3-(4-(2-((1-(5-chloro-6-oxo-1,6-dihydropyridazin-4-yl)pyrrolidin-3-yl)oxy)pyridin-4-yl)-3,5-dimethyl-1H-pyrazol-1-yl)oxetan-3-yl)acetonitrile]
0.001 to 10	0.001 to 10	Cc1nn(CC23CC(C#N)(C2)C3)c(C)c1-c1ccnc(O[C@@H]2CCN(c3cnn(CCO)c(=O)c3Cl)C2)c1 [P-0034, (R)-3-((4-(2-((1-(5-chloro-1-(2-hydroxyethyl)-6-oxo-1,6-dihydropyridazin-4-yl)pyrrolidin-3-yl)oxy)pyridin-4-yl)-3,5-dimethyl-1H-pyrazol-1-yl)methyl)bicyclo[1.1.1]pentane-1-carbonitrile]
